Experimental data published in paper PMC8699473, “An Easily Expandable Multi-Drug LC-MS Assay for the Simultaneous Quantification of 57 Oral Antitumor Drugs in Human Plasma” (Cancers, 2021).

Tests used:
[1] = Freeze-thaw stability in spiked pooled human plasma; format: physicochemical
[2] = Autosampler stability of ready for injection samples; format: physicochemical, human
[3] = set-up: method as in supplement references [1-55] as printed per drug; conditions: minimum steady-state blood plasma concentration after multiple dose administration; ref supplement references [1-55] per drug; cited from earlier work

Row | SMILES | Freeze-Thaw Accuracy [%] ([1]; validation standard 2xLLOV) | Freeze-Thaw Accuracy [%] ([1]; validation standard LLOV) | Freeze-Thaw Accuracy [%] ([1]; validation standard MOV) | Freeze-Thaw Accuracy [%] ([1]; validation standard ULOV) | Autosampler (24h, 4°C) Accuracy [%] ([2]; validation standard 2xLLOV) | Autosampler (72h, 4°C) Accuracy [%] ([2]; validation standard 2xLLOV) | Autosampler (24h, 4°C) Accuracy [%] ([2]; validation standard LLOV) | Autosampler (72h, 4°C) Accuracy [%] ([2]; validation standard LLOV) | Autosampler (24h, 4°C) Accuracy [%] ([2]; validation standard MOV) | Autosampler (72h, 4°C) Accuracy [%] ([2]; validation standard MOV) | Autosampler (24h, 4°C) Accuracy [%] ([2]; validation standard ULOV) | Autosampler (72h, 4°C) Accuracy [%] ([2]; validation standard ULOV) | cmin [3]
1 | CNC(=O)c1ccccc1Sc1ccc2c(/C=C/c3ccccn3)n[nH]c2c1 [Axitinib] | 108.3% | 102.1% | 105.4% | 104.0% | 101.2% | 104.9% | 105.9% | 97.7% | 102.7% | 100.0% | 100.4% | 99.1% | 5 ng/mL
2 | CNC(=O)c1cc(Oc2ccc(NC(=O)Nc3ccc(Cl)c(C(F)(F)F)c3)c(F)c2)ccn1 [Regorafenib] | 97.1% | 101.6% | 96.2% | 98.6% | 101.6% | 101.1% | 107.3% | 102.1% | 101.4% | 104.4% | 104.2% | 99.3% | 1400 ng/mL
3 | Cc1ccc(NC(=O)c2ccc(CN3CCN(C)CC3)cc2)cc1Nc1nccc(-c2cccnc2)n1 [Imatinib] | 98.5% | 100.6% | 96.7% | 96.3% | 115.2% | 116.1% | 102.3% | 103.7% | 108.3% | 101.7% | 95.3% | 95.2% | 
4 | COc1cc2c(Nc3ccc(Br)cc3F)ncnc2cc1OCC1CCN(C)CC1 [Vandetanib] | 97.2% | 83.4% | 101.5% | 94.0% | 103.5% | 102.7% | 85.9% | 83.5% | 108.2% | 101.8% | 95.3% | 94.4% | 795 ng/mL
5 | COc1cc2nccc(Oc3ccc(NC(=O)NC4CC4)c(Cl)c3)c2cc1C(N)=O [Lenvatinib] | 102.5% | 111.6% | 98.4% | 103.0% | 102.4% | 97.9% | 110.0% | 103.7% | 100.6% | 98.6% | 102.6% | 102.7% | 
6 | O=C1CN2Cc3c(ccc(Cl)c3Cl)N=C2N1 [Anagrelide] | 96.5% | 92.8% | 93.8% | 99.6% | 113.2% | 106.1% | 111.7% | 110.5% | 104.6% | 96.8% | 101.8% | 98.2% | 
7 | Cc1[nH]c2ccccc2c1CCNCc1ccc(/C=C/C(=O)NO)cc1 [Panobinostat] | 107.5% | 104.3% | 98.8% | 102.3% | 100.3% | 95.4% | 83.8% | 73.7% | 102.4% | 101.0% | 95.4% | 101.1% | 
8 | O=c1[nH]c(=O)n([C@H]2C[C@H](O)[C@@H](CO)O2)cc1C(F)(F)F [Trifluridine] | 101.6% | 80.9% | 94.4% | 91.6% | 117.8% | 107.4% | 97.0% | 86.9% | 113.1% | 102.7% | 104.4% | 98.4% | 
